Our source for the IC50 values is ChEMBL document CHEMBL1152055, “Synthesis and biological evaluation of four stereoisomers of PDMP-analogue, N-(2-decylamino-3-hydroxy-3-phenylprop-1-yl)--valienamine, and related compounds” (Bioorg Med Chem Lett, 1997).

Test [1] concerns the target T1, Ceramide glucosyltransferase (Homo sapiens, UniProt Q16739).
T1 sequence (Q16739 whole entry): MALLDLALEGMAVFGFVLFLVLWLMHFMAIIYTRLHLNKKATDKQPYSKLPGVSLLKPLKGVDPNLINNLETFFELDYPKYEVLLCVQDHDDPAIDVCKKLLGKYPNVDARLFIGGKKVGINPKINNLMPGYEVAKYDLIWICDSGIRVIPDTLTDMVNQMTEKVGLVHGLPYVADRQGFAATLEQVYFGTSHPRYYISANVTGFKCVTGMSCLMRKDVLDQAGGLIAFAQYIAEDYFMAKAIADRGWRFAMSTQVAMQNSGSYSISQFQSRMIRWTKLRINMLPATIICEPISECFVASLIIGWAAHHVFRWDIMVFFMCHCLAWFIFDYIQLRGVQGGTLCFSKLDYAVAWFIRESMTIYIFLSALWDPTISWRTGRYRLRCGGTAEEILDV
Kind of test: Compound tested for inhibitory activity against glucosylceramide synthase enzyme at a concentration of 1.0*10e-4M; no inhibitory activity.

In test [2] the target is T2, Lysosomal acid glucosylceramidase (Mus musculus, UniProt P17439).
T2 sequence (P17439 whole entry): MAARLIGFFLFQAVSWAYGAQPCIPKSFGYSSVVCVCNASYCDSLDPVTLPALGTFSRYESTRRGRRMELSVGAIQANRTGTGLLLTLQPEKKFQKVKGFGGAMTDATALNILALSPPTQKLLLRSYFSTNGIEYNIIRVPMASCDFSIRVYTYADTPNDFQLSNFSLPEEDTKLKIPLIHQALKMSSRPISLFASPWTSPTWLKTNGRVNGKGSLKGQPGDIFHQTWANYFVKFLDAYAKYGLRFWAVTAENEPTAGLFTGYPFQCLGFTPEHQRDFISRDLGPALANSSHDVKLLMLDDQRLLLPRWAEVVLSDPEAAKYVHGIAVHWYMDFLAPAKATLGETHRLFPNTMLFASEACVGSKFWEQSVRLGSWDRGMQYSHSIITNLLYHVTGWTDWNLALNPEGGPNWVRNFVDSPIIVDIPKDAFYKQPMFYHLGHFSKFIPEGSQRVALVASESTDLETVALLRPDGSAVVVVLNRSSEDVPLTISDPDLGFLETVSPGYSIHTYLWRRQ
Nature of the test: Compound tested for inhibitory activity against beta-glucocerebrosidase enzyme.

Test [3] deals with T2, Lysosomal acid glucosylceramidase. Nature of the test: Compound tested for inhibitory activity against beta-glucocerebrosidase enzyme at a concentration of 1.0*10e-4M; no inhibitory activity.
The target of test [4] is T1, Ceramide glucosyltransferase. Kind of test: Compound tested for inhibitory activity against glucosylceramide synthase enzyme.

Broadly, the IC50 is the midpoint of a concentration-inhibition curve. Low values mean greater potency in that assay, high ones weaker potency in that assay. Take `CCCCCCCCCC(=O)N[C@H](CN[C@@H]1C=C(CO)[C@@H](O)[C@H](O)[C@@H]1O)[C@H](O)c1ccccc1`: the IC50 entry is “No inhibition” in test [1] and 700 nM in test [2].

Regarding `CCCCCCCCCC(=O)N[C@H](CN[C@H]1C=C(CO)[C@@H](O)[C@H](O)[C@@H]1O)[C@H](O)c1ccccc1`, the IC50 entry in test [3] and in test [1] was “No inhibition” each time.

As for `CCCCCCCCCC(=O)N[C@@H](CN[C@@H]1C=C(CO)[C@@H](O)[C@H](O)[C@@H]1O)[C@@H](O)c1ccccc1`, the IC50 entry in test [1] is “No inhibition”; in test [2], 300 nM.

Consider `CCCCCCCCCC(=O)N[C@H](CN[C@@H]1C=C(CO)[C@@H](O)[C@H](O)[C@@H]1O)[C@@H](O)c1ccccc1`, for which the IC50 result is “No inhibition” in test [1] and 700 nM in test [2].

Turning to `CCCCCCCCCC(=O)N[C@@H](CN[C@@H]1C=C(CO)[C@@H](O)[C@H](O)[C@@H]1O)[C@H](O)c1ccccc1`, the IC50 result was “No inhibition” in test [1] and 500 nM in test [2].

Turning to `CCCCCCCCCC(=O)N[C@H](CN1CCOCC1)[C@H](O)c1ccccc1`, the figures for the concentration for half-maximal inhibition (IC50) entry in test [3] and in test [4] were “No inhibition” and 23 µM, respectively.

As to `CCCCCCCCCC(=O)N[C@@H](CNC1CC(CO)C(O)C(O)C1O)[C@H](O)c1ccccc1` (stereo not given in full), the half-maximal inhibitory concentration (IC50) entry in test [1] is “No inhibition”; in test [2], 5000 nM.

On to `CCCCCCCCCC(=O)N[C@@H](CNC1CC(CO)C(O)C(O)C1O)[C@@H](O)c1ccccc1` (stereo not given in full), for which the IC50 entry was “No inhibition” in test [1] and 20000 nM in test [2].

In the case of `CCCCCCCCCC(=O)N[C@H](CNC1CC(CO)C(O)C(O)C1O)[C@@H](O)c1ccccc1` (stereo not given in full), the figures for the IC50 result in test [1] and in test [2] were “No inhibition” and 7000 nM, respectively.

Take `CCCCCCCCCC(=O)N[C@H](CNC1CC(CO)C(O)C(O)C1O)[C@H](O)c1ccccc1` (stereo not given in full): the IC50 entry in test [1] is “No inhibition”; in test [2], 10000 nM.
